Laboratory results taken from US10577363B2, “Substituted piperidine compounds” (EPIZYME, INC., priority 2014, dated 2020).

Biological target: SMYD3 (Homo sapiens (Human), UniProt Q9H7B4)
Test: SMYD3 biochemical assay (SPA, 3H-SAM methylation of MEKK2 protein substrate)
Details: read-out: SMYD3 Biochem IC50 (μM)*
Method in brief: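 Native full-length human SMYD3 (E. coli-expressed, tags removed) was preincubated with compound for 30 min at room temperature in 25 mM Tris-Cl pH 8.0, 1 mM TCEP, 0.005% BSG, 0.005% Tween 20. Reaction was started with 3H-SAM plus GST-MEKK2, quenched with 100 uM unlabeled SAM, and read by SPA scintillation counting.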

Row | Structure (SMILES) | IC50 [µM]
1 | C[C@@H](C(=O)N1CC[C@@H](NC(=O)c2cc(C3CC3)on2)C[C@@H]1C)C1CCNCC1 [compound 359, 5-cyclopropyl-N-((2S,4R)-2-methyl-1-((R)-2-(piperidin-4-yl)propanoyl)piperidin-4-yl)isoxazole-3-carboxamide] | 1.46
2 | O=C(N[C@@H]1CCN(C(=O)CC2CCNCC2)C[C@@H]1CO)c1cc(C2CC2)on1 [compound 362, 5-cyclopropyl-N-((3S,4R)-3-(hydroxymethyl)-1-(2-(piperidin-4-yl)acetyl)piperidin-4-yl)isoxazole-3-carboxamide] | 2.95
3 | N[C@H]1CC[C@H](C(=O)N2CC[C@@H](NC(=O)c3cc(C4CC4)on3)C[C@@H]2CO)CC1 [compound 363, N-((2R,4R)-1-((1r,4R)-4-aminocyclohexane-1-carbonyl)-2-(hydroxymethyl)piperidin-4-yl)-5-cyclopropylisoxazole-3-carboxamide] | 1.99
4 | N[C@H]1CC[C@H](C(=O)N2CC[C@H](NC(=O)c3cc(C4CC4)on3)C[C@H]2Cc2ccccc2)CC1 [compound 364, N-((2R,4S)-1-((1r,4R)-4-aminocyclohexane-1-carbonyl)-2-benzylpiperidin-4-yl)-5-cyclopropylisoxazole-3-carboxamide] | 4.57
5 | C[C@H]1C[C@H](NC(=O)c2cc(C3CC3)on2)CCN1C(=O)c1cccc(C(C)(C)N)c1 [compound 366, N-((2S,4R)-1-(3-(2-aminopropan-2-yl)benzoyl)-2-methylpiperidin-4-yl)-5-cyclopropylisoxazole-3-carboxamide] | 2.75
6 | C[C@H]1C[C@H](NC(=O)c2cc(C3CC3)on2)CCN1C(=O)c1ccc(C(C)(C)N)cc1 [compound 369, N-((2S,4R)-1-(4-(2-aminopropan-2-yl)benzoyl)-2-methylpiperidin-4-yl)-5-cyclopropylisoxazole-3-carboxamide] | 5.87
7 | C[C@@H]1C[C@@H](NC(=O)c2cc(C3CC3)on2)CCN1C(=O)c1ccc(C(C)(C)N)cc1 [compound 371, N-((2R,4S)-1-(4-(2-aminopropan-2-yl)benzoyl)-2-methylpiperidin-4-yl)-5-cyclopropylisoxazole-3-carboxamide] | 4.95
8 | C[C@H]1C[C@H](NC(=O)c2cc(C3CC3)on2)CCN1C(=O)C1CCCC(CN)C1 (stereo partly drawn) [compound 372, N-((2S,4R)-1-(3-(aminomethyl)cyclohexane-1-carbonyl)-2-methylpiperidin-4-yl)-5-cyclopropylisoxazole-3-carboxamide] | 5.89
9 | C[C@@H]1C[C@@H](NC(=O)c2cc(C3CC3)on2)CCN1S(=O)(=O)Cc1cccnc1 [compound 374, 5-cyclopropyl-N-((2R,4S)-2-methyl-1-((pyridin-3-ylmethyl)sulfonyl)piperidin-4-yl)isoxazole-3-carboxamide] | > 10
10 | O=C(N[C@H]1CCN(C(=O)CC2CCNCC2)[C@H](Cc2ccccc2)C1)c1cc(C2CC2)on1 [compound 375, N-((2R,4S)-2-benzyl-1-(2-(piperidin-4-yl)acetyl)piperidin-4-yl)-5-cyclopropylisoxazole-3-carboxamide] | 1.83
11 | O=C(N[C@@H]1CCN(C(=O)CC2CCNCC2)[C@@H](Cc2ccccc2)C1)c1cc(C2CC2)on1 [compound 376, N-((2S,4R)-2-benzyl-1-(2-(piperidin-4-yl)acetyl)piperidin-4-yl)-5-cyclopropylisoxazole-3-carboxamide] | 1.32
12 | C[C@H]1C[C@H](NC(=O)c2cc(C3CC3)on2)CCN1S(=O)(=O)c1ccccc1 [compound 379, 5-cyclopropyl-N-((2S,4R)-2-methyl-1-(phenylsulfonyl)piperidin-4-yl)isoxazole-3-carboxamide] | 3.35
13 | C[C@H]1C[C@H](NC(=O)c2cc(C3CC3)on2)CCN1S(=O)(=O)c1cccc(C#N)c1 [compound 380, N-((2S,4R)-1-((3-cyanophenyl)sulfonyl)-2-methylpiperidin-4-yl)-5-cyclopropylisoxazole-3-carboxamide] | 0.323
14 | N[C@H]1CC[C@H](C(=O)N2CC[C@@H](NC(=O)c3cc(C4CC4)on3)[C@H](CO)C2)CC1 [compound 382, N-((3R,4R)-1-((1r,4R)-4-aminocyclohexane-1-carbonyl)-3-(hydroxymethyl)piperidin-4-yl)-5-cyclopropylisoxazole-3-carboxamide] | 2.54
15 | O=C(N[C@@H]1CCN(C(=O)CC2CCNCC2)C[C@H]1CO)c1cc(C2CC2)on1 [compound 383, 5-cyclopropyl-N-((3R,4R)-3-(hydroxymethyl)-1-(2-(piperidin-4-yl)acetyl)piperidin-4-yl)isoxazole-3-carboxamide] | 3.02
16 | N[C@H]1CC[C@H](C(=O)N2CC[C@@H](NC(=O)c3cc(C4CC4)on3)C[C@H]2CO)CC1 [compound 384, N-((2S,4R)-1-((1r,4S)-4-aminocyclohexane-1-carbonyl)-2-(hydroxymethyl)piperidin-4-yl)-5-cyclopropylisoxazole-3-carboxamide] | 4.04
17 | C[C@@H]1CN(S(=O)(=O)CCCN)CC[C@H]1NC(=O)c1cc(C2CC2)on1 [compound 388, N-((3R,4R)-1-((3-aminopropyl)sulfonyl)-3-methylpiperidin-4-yl)-5-cyclopropylisoxazole-3-carboxamide] | 0.462
18 | N[C@H]1CC[C@H](C(=O)N2CC[C@@H](NC(=O)c3cc(C4CC4)on3)C[C@@H]2Cc2ccccc2)CC1 [compound 389, N-((2S,4R)-1-((1r,4S)-4-aminocyclohexane-1-carbonyl)-2-benzylpiperidin-4-yl)-5-cyclopropylisoxazole-3-carboxamide] | > 10
19 | C[C@@H]1C[C@@H](NC(=O)c2cc(C3CC3)on2)CCN1C(=O)c1cccc(C(C)(C)N)c1 [compound 392, N-((2R,4S)-1-(3-(2-aminopropan-2-yl)benzoyl)-2-methylpiperidin-4-yl)-5-cyclopropylisoxazole-3-carboxamide] | > 10
20 | COCC(C)S(=O)(=O)N1CC[C@H](NC(=O)c2cc(C3CC3)on2)C[C@@H]1C (stereo partly drawn) [compound 393, 5-cyclopropyl-N-((2S,4S)-1-((1-methoxypropan-2-yl)sulfonyl)-2-methylpiperidin-4-yl)isoxazole-3-carboxamide] | 3.16
21 | CC(C)OCCS(=O)(=O)N1CC[C@@H](NC(=O)c2cc(C3CC3)on2)C[C@@H]1C [compound 394, 5-cyclopropyl-N-((2S,4R)-1-((2-isopropoxyethyl)sulfonyl)-2-methylpiperidin-4-yl)isoxazole-3-carboxamide] | > 10
22 | O=C(N[C@@H]1CCN(S(=O)(=O)CCN2CCCC2)[C@@H](Cc2ccccc2)C1)c1cc(C2CC2)on1 [compound 406, N-((2S,4R)-2-benzyl-1-((2-(pyrrolidin-1-yl)ethyl)sulfonyl)piperidin-4-yl)-5-cyclopropylisoxazole-3-carboxamide] | 3.41
23 | O=C(N[C@H]1CCN(S(=O)(=O)CCN2CCCC2)[C@H](Cc2ccccc2)C1)c1cc(C2CC2)on1 [compound 408, N-((2R,4S)-2-benzyl-1-((2-(pyrrolidin-1-yl)ethyl)sulfonyl)piperidin-4-yl)-5-cyclopropylisoxazole-3-carboxamide] | 1.15
24 | O=C(N[C@@H]1CCN(S(=O)(=O)CCN2CCOCC2)[C@@H](Cc2ccccc2)C1)c1cc(C2CC2)on1 [compound 409, N-((2S,4R)-2-benzyl-1-((2-morpholinoethyl)sulfonyl)piperidin-4-yl)-5-cyclopropylisoxazole-3-carboxamide] | > 10
